According to patent publication US20250206825A1, “COMPOSITION FOR PREVENTING OR TREATING MYOCARDITIS, COMPRISING VLA-4 INHIBITOR” (OSAKA UNIVERSITY, priority 2022, published 2025):

Assays:
MRL-Pdcd1^−/− mice = test: AJM300 mixed diet in myocarditis model (survival, echocardiography); format: in vivo, mouse
Procedure: […] MRL-Pdcd1^−/− mice were divided into two groups: AJM300 (−) group (n=13) not to be administered with the AJM300 and AJM300 (+) group (n=12) to be administered with the AJM300.
The AJM300 group (+) was administered with a mixed diet containing 1% of AJM300 from 2 weeks of age until death.
At 28 days of age, 9 mice in the AJM300 (−) group and 10 mice in the AJM300 (+) group were evaluated for the cardiac function by the echocardiography and then euthanized to collect heart and blood samples.

Vcam-1 = test: Induction of Vcam-1 by TNFα in cardiac fibroblasts (Western blotting); format: cell-based, rat; settings: 12 hours and 24 hours after addition of TNFα versus 0 hour, TNFα 5 to 15 ng/ml
Procedure: (§1) For the cardiac fibroblasts, fibroblasts isolated after cell dispersion of a heart harvested from a neonatal rat with Collagenase type 2 (Worthington Biochemical Corporation, LS004176) were cultured in a 96-well plate. For splenic monocytes, a spleen was harvested from a wild-type mouse and homogenized, and then the monocyte fraction was collected by specific gravity separation using Optiprep (Serumwerk Bernburg, 1893). For the adhesion experiment, the cardiac fibroblasts were cultured in the 96-well plate for 48 hours, and then medium was replaced with TNFα+/− and cultured for another 24 hours. The splenic monocytes subjected to fluorescent staining (Hoechst 33342 (DOJINDO LABORATORIES, 341-07901) or Cytored (DOJINDO LABORATORIES, 342-08531)) were added and incubated at 37° C. for 30 min. After washing 6 times with PBS (−) to remove non-adherent monocytes, and then adherent monocytes were counted on In Cell Analyzer 6000 (GE Healthcare Life Sciences).
(§2) The TNFα (Peprotech, 300-01A) was added to the wells at a final concentration of 5 to 15 ng/ml.
Induction of the Vcam-1 by the TNFα was determined by Western blotting. Anti-Vcam1 antibody EPR5047 (Abcam, ab134047) was used as a primary antibody for the Western blotting. An HRP-conjugated anti-Rabbit antibody was used for detection, and Chemi-Lumi One L (Nacalai tesque, 07880-70) was used as a luminescence reagent. […]

[1] = system: cardiac fibroblasts and splenic monocytes; test: Adhesion experiment of monocytes with cardiac fibroblasts in vitro (TNFα stimulation); format: cell-based, neonatal rat (fibroblasts), mouse (monocytes); settings: stimulation with TNFα for 24 hours; monocytes incubated 30 min at 37° C.; In Cell Analyzer 6000
Procedure: as §1, §2

[2] = 1% AJM300 mixed diet, 28 days of age, versus AJM300 (−) group, t-test p=0.0231

Molecule: COC(=O)[C@H](Cc1ccc(-n2c(=O)c3cc(N(C)C)ccc3n(C)c2=O)cc1)NC(=O)c1c(Cl)cccc1Cl [AJM300, carotegrast methyl]
- heart rate (echocardiography) (MRL-Pdcd1^−/− mice; [2]): significantly ameliorated bradycardia
- left ventricular contractile performance: % Fractional Shortening (MRL-Pdcd1^−/− mice; [2]): significantly improved left ventricular contractile performance
- survival time (Kaplan-Meier) versus AJM300 (−) group (MRL-Pdcd1^−/− mice; mixed diet containing 1% of AJM300 from 2 weeks of age until death, Log-rank test p=0.0022): significantly prolonged

Molecule: TNFα
- expression of the Vcam-1 (Western blotting) (Vcam-1): increased more
- adhesion between the cardiac fibroblasts and the monocytes [1]: strengthened
